What is called EC50 is the concentration needed to bring the measured effect to its halfway point. Read a low EC50 as greater potency.

From patent publication US8586755B2, “Substituted nicotinamides as KCNQ2/3 modulators” (Grünenthal GmbH, priority 2009, dated 2013) come the findings set out here.

The target of this experiment is T1, KCNQ2/3 channels (Homo sapiens, UniProt O43525+O43526).
T1 construct: expressed in transfected cells
The experiment can be described thus: Fluorescence assay using a voltage sensitive dye (fluorimetry). The class given is cell-based. Conditions: CHO-K1 cells expressing KCNQ2/3 channels; for EC50: agonistic activity; for Emax / Fluorimetry % efficacy (retigabine 50 μM = 100%): retigabine 50 μM = 100%; for Emax: read-out: Fluorimetry % efficacy (retigabine 50 μM = 100%). The procedure, abridged: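 Agonist EC50s come from the F2 vs F1 fluorescence comparison, F2 taken at the peak after KCl depolarisation (92 mM final) and F1 after 30 min compound exposure at room temperature. Assay uses KCNQ2/3-expressing CHO-K1 cells stained 45 min with a red voltage-sensitive dye in pH 7.4 ES buffer.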

The structures appear in SMILES notation.

As for `O=C(NCCc1ccncc1)c1cccnc1SCCCc1ccc(F)cc1` [compound 89, 2-[3-(4-Fluorophenyl)-propylsulfanyl]-N-(2-pyridine-4-yl-ethyl)-pyridine-3-carboxylic acid amide], the response was half-maximal at 5450 nM (EC50) and the Emax came to 72%.

On to `Cc1ccc(CCNC(=O)c2cccnc2SCCCc2ccc(F)cc2)cc1` [compound 90, 2-[3-(4-Fluorophenyl)-propylsulfanyl]-N-[2-(p-tolyl)-ethyl]-pyridine-3-carboxylic acid amide], for which the Emax is 37%.

On to `CC(CCSc1ncccc1C(=O)NCC1CC2CCC1C2)c1ccc(F)cc1` (centres unmarked) [compound 91, N-(5-Bicyclo[2.2.1]heptanyl-methyl)-2-[3-(4-fluorophenyl)-butylsulfanyl]-pyridine-3-carboxylic acid amide], for which the EC50 stood at 184 nM and the Emax came out at 241%.

In the case of `O=C(NCC1CC2CCC1C2)c1cccnc1SCCCc1cc(F)c(F)cc1F` (centres unmarked) [compound 92, N-(5-Bicyclo[2.2.1]heptanyl-methyl)-2-[3-(2,4,5-trifluoro-phenyl)-propylsulfanyl]-pyridine-3-carboxylic acid amide], a half-maximal response (EC50) required 138 nM and the Emax was found to be 270%.

On to `O=C(NCCCc1ccccn1)c1cccnc1SCCCc1ccc(F)cc1` [compound 93, 2-[3-(4-Fluorophenyl)-propylsulfanyl]-N-(3-pyridine-2-yl-propyl)-pyridine-3-carboxylic acid amide], for which a half-maximal response (EC50) required 2810 nM and the Emax stood at 154%.

`O=C(NCCCc1cccnc1)c1cccnc1SCCCc1ccc(F)cc1` [compound 94, 2-[3-(4-Fluorophenyl)-propylsulfanyl]-N-(3-pyridine-3-yl-propyl)-pyridine-3-carboxylic acid amide]: the midpoint of the response, the EC50, lay at 2210 nM and the Emax was 181%.

Take `O=C(NCCCc1ccncc1)c1cccnc1SCCCc1ccc(F)cc1` [compound 95, 2-[3-(4-Fluorophenyl)-propylsulfanyl]-N-(3-pyridine-4-yl-propyl)-pyridine-3-carboxylic acid amide]: the EC50 was determined as 2060 nM and the Emax was found to be 147%.

Regarding `CCCNC(=O)c1cccnc1SCCCc1ccc(F)cc1` [compound 96, 2-[3-(4-Fluorophenyl)-propylsulfanyl]-N-propyl-pyridine-3-carboxylic acid amide], the EC50 turned out to be 660 nM and the Emax was 194%.

Turning to `CCCCNC(=O)c1cccnc1SCCCc1ccc(F)cc1` [compound 97, N-Butyl-2-[3-(4-fluorophenyl)-propylsulfanyl]-pyridine-3-carboxylic acid amide], the midpoint of the response, the EC50, lay at 134 nM and the Emax was 196%.

`O=C(NCc1cccs1)c1cccnc1SCCCc1cccnc1` [compound 98, 2-(3-Pyridin-3-yl-propylsulfanyl)-N-(thiophen-2-yl-methyl)-pyridine-3-carboxylic acid amide]: the Emax was 29%.

Turning to `Cc1ccc(CCCSc2ncccc2C(=O)NCc2cccs2)cc1` [compound 99, 2-[3-(p-Tolyl)-propylsulfanyl]-N-(thiophen-2-yl-methyl)-pyridine-3-carboxylic acid amide], a half-maximal effect (EC50) was put at 178 nM and the Emax amounted to 70%.

In the case of `O=C(NCc1cccs1)c1cccnc1SCCCCc1ccccc1` [compound 100, 2-(4-Phenyl-butylsulfanyl)-N-(thiophen-2-yl-methyl)-pyridine-3-carboxylic acid amide], the concentration giving a half-maximal response (EC50) came to 1590 nM and the Emax was 48%.

With `O=C(NCc1cccs1)c1cccnc1SCCCc1ccncc1` [compound 101, 2-(3-Pyridin-4-yl-propylsulfanyl)-N-(thiophen-2-yl-methyl)-pyridine-3-carboxylic acid amide], the Emax is 38%.

Consider `O=C(NCc1cccs1)c1cccnc1SCCCc1ccc2ccccc2c1` [compound 102, 2-(3-Naphthalen-2-yl-propylsulfanyl)-N-(thiophen-2-yl-methyl)-pyridine-3-carboxylic acid amide], for which the response was half-maximal at 456 nM (EC50) and the Emax was found to be 111%.

Consider `Cc1cccc(CCCSc2ncccc2C(=O)NCc2cccs2)c1` [compound 103, 2-[3-(m-Tolyl)-propylsulfanyl]-N-(thiophen-2-yl-methyl)-pyridine-3-carboxylic acid amide], for which the EC50 turned out to be 111 nM and the Emax stood at 129%.

In the case of `O=C(NCc1cccs1)c1cccnc1SCCCc1cccs1` [compound 104, N-(Thiophen-2-yl-methyl)-2-(3-thiophen-2-yl-propylsulfanyl)-pyridine-3-carboxylic acid amide], it took 361 nM to reach a half-maximal effect (EC50) and the Emax was 87%.

On to `CC(CCc1ccccc1)Sc1ncccc1C(=O)NCc1cccs1` (centres unmarked) [compound 105, 2-[(1-Methyl-3-phenyl-propyl)sulfanyl]-N-(thiophen-2-yl-methyl)-pyridine-3-carboxylic acid amide], for which the midpoint of the response, the EC50, lay at 479 nM and the Emax worked out at 166%.

Take `O=C(NCc1cccs1)c1cccnc1SCCCc1ccsc1` [compound 106, N-(Thiophen-2-yl-methyl)-2-(3-thiophen-3-yl-propylsulfanyl)-pyridine-3-carboxylic acid amide]: the EC50 turned out to be 191 nM and the Emax was 95%.

`O=C(NCc1cccs1)c1cccnc1SC1CCCCC1Cc1ccccc1` (centres unmarked) [compound 108, 2-[(2-Benzyl-cyclohexyl)sulfanyl]-N-(thiophen-2-yl-methyl)-pyridine-3-carboxylic acid amide]: the EC50 turned out to be 165 nM and the Emax was found to be 143%.

On to `Cc1cc(CCCSc2ncccc2C(=O)NCc2cccs2)cc(C(F)(F)F)c1` [compound 109, 2-[3-[3-Methyl-5-(trifluoromethyl)-phenyl]-propylsulfanyl]-N-(thiophen-2-yl-methyl)-pyridine-3-carboxylic acid amide], for which the EC50 is 180 nM and the Emax is 129%.

With `O=C(NCc1cccs1)c1cccnc1SCCCCc1ccc(F)c(F)c1` [compound 110, 2-[4-(3,4-Difluoro-phenyl)-butylsulfanyl]-N-(thiophen-2-yl-methyl)-pyridine-3-carboxylic acid amide], the midpoint of the response, the EC50, lay at 462 nM and the Emax was found to be 110%.

As for `O=C(NCc1cccs1)c1cccnc1SCCCc1ccccn1` [compound 111, 2-(3-Pyridin-2-yl-propylsulfanyl)-N-(thiophen-2-yl-methyl)-pyridine-3-carboxylic acid amide], the EC50 was determined as 11100 nM and the Emax turned out to be 61%.

Regarding `O=C(NCc1cccs1)c1ccc(N2CCCC2)nc1SCCCc1ccccc1` [compound 112], the EC50 was found to be 494 nM and the “Fluorimetry % efficacy (retigabine 50 μM = 100%)” value stood at 104%.

Turning to `Cc1ccc(CCCSc2ncccc2C(=O)NCc2cccs2)cc1C(F)(F)F` [compound 113, 2-[3-[4-Methyl-3-(trifluoromethyl)-phenyl]-propylsulfanyl]-N-(thiophen-2-yl-methyl)-pyridine-3-carboxylic acid amide], the response was half-maximal at 5200 nM (EC50) and the Emax amounted to 90%.

As for `O=C(NCc1cccs1)c1cccnc1SC1CCCC(c2ccccc2)C1` (centres unmarked) [compound 114, 2-[(3-Phenyl-cyclohexyl)sulfanyl]-N-(thiophen-2-yl-methyl)-pyridine-3-carboxylic acid amide], the EC50 worked out at 553 nM and the Emax is 128%.

Consider `O=C(NCC1CC2CCC1C2)c1cccnc1SCCC(F)(F)c1ccc(F)cc1` (centres unmarked) [compound 115], for which the EC50 is 42 nM and the “Fluorimetry % efficacy (retigabine 50 μM = 100%)” value stood at 213%.

`O=C(NCC1CCCCCC1)c1cccnc1SCCC(F)(F)c1ccc(F)cc1` [compound 117, N-(Cycloheptyl-methyl)-2-[[3,3-difluoro-3-(4-fluorophenyl)-propyl]sulfanyl]-pyridine-3-carboxylic acid amide]: the concentration giving a half-maximal response (EC50) was determined as 35 nM and the Emax turned out to be 160%.

As for `O=C(NCc1cccs1)c1cccnc1SCCC(F)(F)c1ccc(F)cc1` [compound 118, 2-[[3,3-Difluoro-3-(4-fluorophenyl)-propyl]sulfanyl]-N-(thiophen-2-yl-methyl)-pyridine-3-carboxylic acid amide], the EC50 stood at 37 nM and the Emax is 159%.

`O=C(NCC1CCc2ccccc2C1)c1cccnc1SCCCc1ccc(F)cc1` (centres unmarked) [compound 119, 2-[3-(4-Fluorophenyl)-propylsulfanyl]-N-(1,2,3,4-tetrahydro-naphthalen-2-yl-methyl)-pyridine-3-carboxylic acid amide]: the Emax was found to be 30%.

Consider `O=C(NCC1Cc2ccccc2C1)c1cccnc1SCCCc1ccc(F)cc1` [compound 120, N-(2,3-Dihydro-1H-inden-2-yl-methyl)-2-[3-(4-fluorophenyl)-propylsulfanyl]-pyridine-3-carboxylic acid amide], for which the EC50 turned out to be 307 nM and the Emax turned out to be 61%.

For `O=C(NCc1ccc2c(c1)OCO2)c1cccnc1SCCCc1ccc(F)cc1` [compound 121, N-(1,3-Benzodioxol-5-yl-methyl)-2-[3-(4-fluorophenyl)-propylsulfanyl]-pyridine-3-carboxylic acid amide], the concentration giving a half-maximal response (EC50) came out at 256 nM and the Emax was 99%.

For `O=C(NCc1cccc(-c2ccccc2)c1)c1cccnc1SCCCc1ccc(F)cc1` [compound 122, 2-[3-(4-Fluorophenyl)-propylsulfanyl]-N-[(3-phenyl-phenyl)-methyl]-pyridine-3-carboxylic acid amide], the concentration giving a half-maximal response (EC50) was 153 nM and the Emax worked out at 94%.

Consider `CC1CCCC(CNC(=O)c2cccnc2SCCCc2ccc(F)cc2)C1` (centres unmarked) [compound 123, 2-[3-(4-Fluorophenyl)-propylsulfanyl]-N-[(3-methyl-cyclohexyl)-methyl]-pyridine-3-carboxylic acid amide], for which a half-maximal response (EC50) required 155 nM and the Emax turned out to be 168%.
